Experimental data from patent US20100298430A1, “PROPHYLACTIC ANTISTRESS AGENT” (KAO CORPORATION, priority 2005, published 2010).

Legend:
fatigue rats [1] = experiment: Weighted swimming test in water immersion load fatigue rats (stress fatigue), intraperitoneal administration; format: in vivo, SD rats; conditions: CQA 300 mg/kg intraperitoneally once a day for 5 days; swim on the 6th day with weight 8% of body weight, water of 23° C.; vs normal saline control
Procedure: SD rats (male, 7-week-old, n=4 to 12) were bred for 5 days in a cage wherein the water depth had been set at 1.5 cm (23±1° C.) (1 rat/1 cage), so as to produce fatigue rats. It is to be noted that the water in such a cage was exchanged with fresh one every day. From the first day, a test sample or a normal saline solution used as a control was intraperitoneally administered to the rats once a day. At the same time, rats, which had been bred on a common bedding, were defined as normal rats, and from the first day, a normal saline solution was intraperitoneally administered to them once a day. After completion of the breeding for 5 days, a weight that was 8% of the body weight was attached to the tail portion of each rat on the 6th day, and the rat was then allowed to swim in water of 23° C. The time required until the nose was submerged in water for 10 or more seconds was measured, and the thus measured time was evaluated as a fatigue level caused by stress. For the test group, chlorogenic acid (CQA 300 mg/kg) was used. For the control group, a normal saline solution was used.

fatigue rats [2] = experiment: Weighted swimming test in water immersion central fatigue model rats, administration in drinking water; format: in vivo, SD rats; conditions: 0.25% (W/V) in drinking water (370 mg/kg/day), oral; 3 days water immersion; swim on the 4th day with weight 8% of body weight; vs distilled water control
Procedure: A test sample or distilled water used as a control was administered in the form of drinking water to SD rats (male, 6-week-old, n=3 to 6). Thereafter, the rats were bred for 3 days in a cage wherein the water depth had been set at 1.5 cm (23±1° C.) (1 rat/1 cage), so as to produce fatigue rats. It is to be noted that the water in such a cage was exchanged with fresh one every day. At the same time, rats, which had been bred on a common bedding, were defined as normal rats. After completion of the breeding for 3 days, a weight that was 8% of the body weight was attached to the tail portion of each rat on the 4th day, and the rat was then allowed to swim in water of 23° C. The time required until the nose was submerged in water for 10 or more seconds was measured, and the thus measured time was evaluated as a fatigue level caused by central fatigue (chronic fatigue). This model has been known as a central fatigue model (Non-Patent Document 1 and Neurosci. Lett. 352 (2003), 159-162). For the test group, 0.25% (W/V) chlorogenic acid (370 mg/kg/day) was used. For the control group, distilled water was used.

## O=C(/C=C/c1ccc(O)c(O)c1)O[C@@H]1C[C@](O)(C(=O)O)C[C@@H](O)[C@H]1O [chlorogenic acid]
Fatigue rats [1]
  fatigue level caused by stress (swimming time until the nose was submerged in water for 10 or more seconds): attenuated
Fatigue rats [2]
  fatigue level caused by central fatigue (chronic fatigue) (swimming time until the nose was submerged in water for 10 or more seconds): attenuated
